The values below come from article doi:10.1101/2021.10.07.463234v2 (biorxiv, 2021).

Counter-ions that a name gives are not always drawn.

The target of one test is SARS-CoV-2 Mac1 (Severe acute respiratory syndrome coronavirus 2, UniProt P0DTD1). As to the kind of experiment: biochemical. As to conditions: 100 µM; inhibitor.
Regarding `Cc1cn(-c2cc(NC(=O)c3ccc(C)c(Nc4nccc(-c5cccnc5)n4)c3)cc(C(F)(F)F)c2)cn1` [Nilotinib hydrochloride], the “%inhibition” value worked out at 3.764%.

With `CN1CCN(c2ccc3nc(-c4c(N)c5c(F)cccc5[nH]c4=O)[nH]c3c2)CC1` [Dovitinib (TKI-258, CHIR-258)], the “%inhibition” value is 50.41%.

Take `CCc1cc2c(cc1CC)CC(NC[C@H](O)c1ccc(O)c3[nH]c(=O)ccc13)C2` [Indacaterol]: the “%inhibition” value was found to be 1.05%.

Regarding `CC(C)NCC(O)COc1ccc(CCOCC2CC2)cc1` (stereo not shown) [Betaxolol], the “%inhibition” value is reported as 0%.

Regarding `COCCc1ccc(OCC(O)CNC(C)C)cc1` (stereo not shown) [Metoprolol], the “%inhibition” value turned out to be 3.241%.

Turning to `COc1ccc(NC(=O)c2ccc(C(=N)N(C)C)cc2)c(C(=O)Nc2ccc(Cl)cn2)c1` [Betrixaban maleate], the “%inhibition” value worked out at 3.06%.

As for `Cn1c(=O)cc(N2CCC[C@@H](N)C2)n(Cc2cc(F)ccc2C#N)c1=O` [Trelagliptin], the “%inhibition” value came out at 0%.

For the molecule `CN(CCOc1ccc(CC2SC(=O)NC2=O)cc1)c1ccccn1` (stereo not shown) [Rosiglitazone], the “%inhibition” value was determined as 18.44%.

Still in this test, the particulars now being: read-out: %inhibition.
In the case of `CC1CCc2cc(F)cc3c(=O)c(C(=O)O)cn1c23` (stereo not shown) [Flumequine], the inhibition at 100 µM came to 0%.

For the molecule `O=C1OCCN1/N=C/c1ccc([N+](=O)[O-])o1` [Furazolidone], the inhibition at 100 µM worked out at 0%.

As for `COC(c1ccccc1)(c1ccccc1)[C@H](Oc1nc(C)cc(C)n1)C(=O)O` [Ambrisentan], the inhibition at 100 µM turned out to be 0%.

As for `C/C=C1\[C@H]2C=C(C)C[C@]1(N)c1ccc(=O)[nH]c1C2` [(-)-Huperzine A (HupA)], the inhibition at 100 µM stood at 0%.

`CC(C)(CO)c1cc2cc(NC(=O)C3(c4ccc5c(c4)OC(F)(F)O5)CC3)c(F)cc2n1C[C@@H](O)CO` [Tezacaftor(VX-661)]: the inhibition at 100 µM was 16.1%.

For `CCCCC(C)(O)C/C=C/[C@H]1[C@H](O)CC(=O)[C@@H]1CCCCCCC(=O)OC` (mixture of isomers) [Misoprostol], the inhibition at 100 µM came out at 0%.

As for `CC(C)C(=O)OCC(=O)[C@@]12O[C@H](C3CCCCC3)O[C@@H]1C[C@H]1[C@@H]3CCC4=CC(=O)C=C[C@]4(C)[C@H]3[C@@H](O)C[C@@]12C` [Ciclesonide], the inhibition at 100 µM is 0%.

Consider `CC(S)C(=O)NCC(=O)O` (stereo not shown) [Tiopronin], for which the inhibition at 100 µM came out at 0%.

As to `CC(=O)OCC(=O)[C@@]12N=C(C)O[C@@H]1C[C@H]1[C@@H]3CCC4=CC(=O)C=C[C@]4(C)[C@H]3[C@@H](O)C[C@@]12C` [Deflazacort], the inhibition at 100 µM is 37.4%.

For `COC(=O)C1=C(C)NC(C)=C(C(=O)OCCN2CCN(C(c3ccccc3)c3ccccc3)CC2)C1c1cccc([N+](=O)[O-])c1` (stereo not shown) [Manidipine 2HCl], the inhibition at 100 µM is 0%.

As for `CC[C@H]1[C@@H]2C[C@H]3[C@@H]4N(C)c5ccccc5[C@]45C[C@@H]([C@H]2[C@H]5O)N3[C@@H]1O` [Ajmaline], the inhibition at 100 µM came to 18.1%.

With `OCc1cc(C(O)CNCCCCCCOCCCCc2ccccc2)ccc1O` (stereo not shown) [Salmeterol], the inhibition at 100 µM is 3.12%.

`CO/N=C(\C(=O)N[C@@H]1C(=O)N2C(C(=O)OCOC(=O)C(C)(C)C)=C(/C=C\c3scnc3C)CS[C@H]12)c1csc(N)n1` [Cefditoren Pivoxil]: the inhibition at 100 µM was determined as 0%.

As for `CO/N=C(\C(=O)N[C@@H]1C(=O)N2C(C(=O)O)=C(CSc3nnnn3C)CS[C@H]12)c1csc(N)n1` [Cefmenoxime hydrochloride], the inhibition at 100 µM was 0%.

Turning to `CC(O)(P(=O)(O)O)P(=O)(O)O` [Etidronate], the inhibition at 100 µM was 0%.

`CCCCCCCCCCCCCCCCCC(=O)O` [Stearic acid]: the inhibition at 100 µM stood at 6.72%.

As for `C=CC(=O)N1CCC[C@@H](n2nc(-c3ccc(Oc4ccccc4)cc3)c3c(N)ncnc32)C1` [Ibrutinib (PCI-32765)], the inhibition at 100 µM was determined as 6.43%.

Take `Nc1ccn([C@@H]2CS[C@H](CO)O2)c(=O)n1` [Lamivudine]: the inhibition at 100 µM was 0%.

Regarding `CCCCOC(=O)c1ccc(O)cc1` [Butylparaben], the inhibition at 100 µM amounted to 0%.

For the molecule `CN1C(=O)OC(C)(C)C1=O` [Trimethadione], the inhibition at 100 µM was 0%.

In the case of `CCCSc1ccc2[nH]c(NC(=O)OC)nc2c1` [Albendazole], the inhibition at 100 µM came to 0%.

As for `O=C(Nc1ccccc1)OCC(CN1CCCCC1)OC(=O)Nc1ccccc1` (stereo not shown) [Diperodon HCl], the inhibition at 100 µM came to 0.82%.

For `CC(C)(Oc1ccc(C(=O)c2ccc(Cl)cc2)cc1)C(=O)O` [Fenofibric acid], the inhibition at 100 µM was determined as 0%.

In the case of `CO[C@H]1C(=O)[C@]2(C)[C@@H](OC)C[C@H]3OC[C@@]3(OC(C)=O)[C@H]2[C@H](OC(=O)c2ccccc2)[C@]2(O)C[C@H](OC(=O)[C@H](O)[C@@H](NC(=O)OC(C)(C)C)c3ccccc3)C(C)=C1C2(C)C` [Cabazitaxel], the inhibition at 100 µM amounted to 25.1%.

Regarding `COc1nc(C)cnc1NS(=O)(=O)c1cccnc1-c1ccc(-c2nnco2)cc1` [Zibotentan (ZD4054)], the inhibition at 100 µM turned out to be 7.65%.

On to `Nc1ncnc2nc[nH]c12` [Adenine sulfate], for which the inhibition at 100 µM was determined as 4.13%.

As for `CCc1ccc(C(=O)C(C)CN2CCCCC2)cc1` (stereo not shown) [Eperisone hydrochloride], the inhibition at 100 µM worked out at 10.4%.

Turning to `CCCCC[C@H](O)/C=C/[C@H]1[C@H](O)CC(=O)[C@@H]1C/C=C\CCCC(=O)O` [Prostaglandin E2 (PGE2)], the inhibition at 100 µM is 8.12%.

Turning to `CN1CCN(C2=Nc3ccccc3Oc3ccc(Cl)cc32)CC1` [Loxapine Succinate], the inhibition at 100 µM worked out at 30.4%.

Regarding `CC(C)(C)NC(=O)[C@H]1CC[C@H]2[C@@H]3CC[C@H]4NC(=O)C=C[C@]4(C)[C@H]3CC[C@]12C` [Finasteride], the inhibition at 100 µM came out at 0%.

On to `CCN(CC)CCOC(=O)C(c1ccccc1)c1ccccc1` [Adiphenine HCl], for which the inhibition at 100 µM was 6.54%.

Take `CS(=O)(=O)OCCCCOS(C)(=O)=O` [Busulfan]: the inhibition at 100 µM stood at 0%.

In the case of `CN(C)CCC=C1c2ccccc2CCc2ccccc21` [Amitriptyline HCl], the inhibition at 100 µM is 0%.

In the case of `CCC(=O)c1c(O)cc(O)cc1O` [Flopropione], the inhibition at 100 µM is 7.24%.

As to `CC(N)[C@]12C[C@H]3C[C@H](C[C@H](C3)C1)C2` (stereo partly shown) [Rimantadine Hydrochloride], the inhibition at 100 µM amounted to 4.71%.

Regarding `C[C@H](Oc1ccc(S(C)(=O)=O)cc1C(=O)N1CCN(c2ncc(C(F)(F)F)cc2F)CC1)C(F)(F)F` [Bitopertin], the inhibition at 100 µM was found to be 0%.

For `CN(C)CCc1c[nH]c2ccc(CS(=O)(=O)N3CCCC3)cc12` [Almotriptan Malate], the inhibition at 100 µM is 9.31%.

Consider `COc1cc([C@@H]2c3cc4c(cc3[C@@H](O[C@@H]3O[C@@H]5CO[C@@H](c6cccs6)O[C@H]5[C@H](O)[C@H]3O)[C@H]3COC(=O)[C@H]23)OCO4)cc(OC)c1O` [Teniposide], for which the inhibition at 100 µM came out at 12.8%.

`COC(=O)Nc1nc2cc([S+]([O-])c3ccccc3)ccc2[nH]1` (stereo not shown) [Oxfendazole]: the inhibition at 100 µM stood at 0%.

Turning to `CNS(=O)(=O)CCc1ccc2[nH]cc(C3CCN(C)CC3)c2c1` [Naratriptan HCl], the inhibition at 100 µM worked out at 0%.

On to `CCOC(=O)n1ccn(C)c1=S` [Carbimazole], for which the inhibition at 100 µM amounted to 0%.

On to `O=C(O)c1cccnc1` [Nicotinic Acid], for which the inhibition at 100 µM worked out at 28.8%.

Consider `CO/N=C1\C[C@]2(C[C@@H]3C[C@@H](C/C=C(\C)C[C@@H](C)/C=C/C=C4\CO[C@@H]5[C@H](O)C(C)=C[C@@H](C(=O)O3)[C@]45O)O2)O[C@H](/C(C)=C/C(C)C)[C@H]1C` [Moxidectin], for which the inhibition at 100 µM amounted to 7.63%.

As for `Oc1c(Cl)cc(Cl)cc1Sc1cc(Cl)cc(Cl)c1O` [Bithionol], the inhibition at 100 µM stood at 0%.

As to `CCCCOC(=O)c1ccccc1Nc1cccc(C(F)(F)F)c1` [Ufenamate], the inhibition at 100 µM was determined as 7.76%.

For the molecule `C[C@]12CC[C@@H]3c4ccc(OS(=O)(=O)O)cc4CC[C@H]3[C@@H]1CCC2=O` [Estropipate], the inhibition at 100 µM stood at 8.24%.

`COc1cccc2c1C(=O)c1c(O)c3c(c(O)c1C2=O)C[C@@](O)(C(C)=O)C[C@@H]3O[C@H]1C[C@H](N)[C@H](O)[C@H](C)O1` [Daunorubicin HCl]: the inhibition at 100 µM is 30.2%.

Take `CC(C(=O)O)c1ccc2c(c1)Cc1cccnc1O2` (stereo not shown) [Pranoprofen]: the inhibition at 100 µM was determined as 17.8%.

Consider `Cc1cccc(Nc2ccncc2S(=O)(=O)NC(=O)NC(C)C)c1` [Torsemide], for which the inhibition at 100 µM was 15.1%.

As for `C#C[C@]1(O)CC[C@H]2[C@@H]3CCC4=CCCC[C@@H]4[C@H]3C(=C)C[C@@]21CC` [Desogestrel], the inhibition at 100 µM turned out to be 0%.

With `CS(=O)(=O)c1cccc(C[C@H](NC(=O)c2c(Cl)cc3c(c2Cl)CCN(C(=O)c2ccc4ccoc4c2)C3)C(=O)O)c1` [Lifitegrast], the inhibition at 100 µM came to 0%.

On to `CCCCNc1ccc(C(=O)OCCN(C)C)cc1` [Tetracaine HCl], for which the inhibition at 100 µM worked out at 9.17%.

For the molecule `CCOC(=O)c1ncn2c1CN(C)C(=O)c1cc(F)ccc1-2` [Flumazenil], the inhibition at 100 µM stood at 5.44%.

As for `CS(=O)(=O)N1CCN(Cc2cc3nc(-c4cccc5[nH]ncc45)nc(N4CCOCC4)c3s2)CC1` [Pictilisib (GDC-0941)], the inhibition at 100 µM worked out at 10.2%.

As for `O=C1c2c(O)cccc2Cc2cccc(O)c21` [Dithranol], the inhibition at 100 µM came out at 18.7%.

Consider `CC1=C(C/C=C(\C)CCC[C@H](C)CCC[C@H](C)CCCC(C)C)C(=O)c2ccccc2C1=O` [Vitamin K1], for which the inhibition at 100 µM was determined as 19.5%.

As for `Nc1ccn(C[C@@H](CO)OCP(=O)(O)O)c(=O)n1` [Cidofovir], the inhibition at 100 µM amounted to 0%.

Take `O=C1N=C(O)NC1(c1ccccc1)c1ccccc1` [Phenytoin Sodium]: the inhibition at 100 µM was found to be 16%.

As for `COc1cc2nccc(Oc3ccc(NC(=O)Nc4cc(C)on4)c(Cl)c3)c2cc1OC` [Tivozanib (AV-951)], the inhibition at 100 µM is 9.18%.

With `Nc1c2ccccc2nc2ccccc12` [9-Aminoacridine], the inhibition at 100 µM was found to be 0.915%.

With `CC1(O)CCC(C(C)(C)O)CC1` (stereo not shown) [Terpin hydrate], the inhibition at 100 µM was determined as 0%.

Turning to `C[C@@H]1COC(Nc2ccc3ncnc(Nc4ccc(OCc5nccs5)c(Cl)c4)c3c2)=N1` [Varlitinib], the inhibition at 100 µM came out at 0%.
